Results: ChEMBL document CHEMBL1201862, “PubChem BioAssay data set” (2004)
The source made the active and inactive calls.

How the values were obtained:
Leucine aminopeptidase = target: T1, Leucine aminopeptidase (Plasmodium falciparum 3D7, UniProt Q8IL11); assay: P. falciparum M17LAP inhibitors, primary screen, biochemical, fluorogenic H-Leu-NHMec substrate, 1536-well (AID 1619); format: functional
T1 sequence (Q8IL11 whole entry): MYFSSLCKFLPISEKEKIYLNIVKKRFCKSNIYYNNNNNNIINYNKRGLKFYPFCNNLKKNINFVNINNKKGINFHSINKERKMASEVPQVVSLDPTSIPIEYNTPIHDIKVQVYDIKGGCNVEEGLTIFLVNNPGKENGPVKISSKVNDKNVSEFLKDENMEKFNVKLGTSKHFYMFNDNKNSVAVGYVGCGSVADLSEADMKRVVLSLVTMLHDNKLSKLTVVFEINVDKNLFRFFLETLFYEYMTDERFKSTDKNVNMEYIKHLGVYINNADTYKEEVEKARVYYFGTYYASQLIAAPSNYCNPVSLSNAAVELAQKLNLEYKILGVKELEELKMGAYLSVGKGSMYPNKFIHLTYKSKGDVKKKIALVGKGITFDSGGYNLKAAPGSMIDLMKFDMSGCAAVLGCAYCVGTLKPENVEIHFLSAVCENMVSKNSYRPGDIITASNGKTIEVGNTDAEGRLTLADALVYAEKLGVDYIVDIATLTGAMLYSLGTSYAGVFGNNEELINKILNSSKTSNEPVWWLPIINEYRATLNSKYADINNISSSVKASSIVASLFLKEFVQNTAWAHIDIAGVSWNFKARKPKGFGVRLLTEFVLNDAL

[1] = target: Aryl hydrocarbon receptor (Homo sapiens, UniProt P35869); assay: Luminescence-based cell-based high throughput dose response assay for activators of the Aryl Hydrocarbon Receptor (AHR). [Related pubchem assays: 2796 (Primary screen (AHR activators in singlicate)), 2845 (Confirmation screen (AHR activators in triplicate)), 434939 (Counterscreen (PXR activators in triplicate)), 2804 (Summary (AHR activators))]; format: ADME
NADPH oxidase 1 = target: T2, NADPH oxidase 1 (Homo sapiens, UniProt Q9Y5S8); assay: Late stage results from the probe development effort to identify inhibitors of NOX1: HEK/293 IC50. [Related pubchem assays: 1796 (Summary AID (NOX1)), 2752 (Primary screen (NOX1 inhibitors, synthesized analogs set 2)), 2664 (Primary screen (NOX1 inhibitors, synthesized analogs)), 1792 (Primary Screen (NOX1)), 2545 (Confirmation screen (NOX1 …; format: functional
T2 sequence (Q9Y5S8 whole entry): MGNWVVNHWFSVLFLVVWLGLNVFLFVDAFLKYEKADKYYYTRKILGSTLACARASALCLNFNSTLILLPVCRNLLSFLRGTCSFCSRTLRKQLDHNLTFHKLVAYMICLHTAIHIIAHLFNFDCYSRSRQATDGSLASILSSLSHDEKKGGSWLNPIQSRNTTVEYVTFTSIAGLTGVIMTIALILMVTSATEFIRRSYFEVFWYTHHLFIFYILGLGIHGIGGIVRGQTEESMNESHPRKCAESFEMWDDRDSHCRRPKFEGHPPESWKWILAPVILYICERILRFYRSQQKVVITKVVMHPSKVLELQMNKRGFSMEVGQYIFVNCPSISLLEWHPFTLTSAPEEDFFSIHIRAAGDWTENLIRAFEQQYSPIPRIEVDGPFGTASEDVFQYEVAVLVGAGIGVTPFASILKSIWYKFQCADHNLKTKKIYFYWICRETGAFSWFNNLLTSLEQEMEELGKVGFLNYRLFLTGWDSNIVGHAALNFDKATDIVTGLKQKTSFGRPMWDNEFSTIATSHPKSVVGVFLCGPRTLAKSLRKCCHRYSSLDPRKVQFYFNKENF

Vero = assay: mammalian cell viability reduction – secondary assay, cytotoxicity control for West Nile virus antiviral project, dose response (AID 1650); format: functional; settings: Chlorocebus sabaeus
[2] = Luminescence Cell-Based Dose Retest to Confirm Inhibitors of Cancer Stem Cells. [Related pubchem assays (depositor defined):AID2717, AID2721]; format: functional; settings: Homo sapiens
[3] = target: T3, Tyrosine-protein phosphatase non-receptor type 7 (Homo sapiens, UniProt P35236); assay: HePTP tyrosine phosphatase activity blockers – biochemical, absorbance, leukemia target, primary screen (AID 521); format: functional
T3 sequence (P35236 whole entry): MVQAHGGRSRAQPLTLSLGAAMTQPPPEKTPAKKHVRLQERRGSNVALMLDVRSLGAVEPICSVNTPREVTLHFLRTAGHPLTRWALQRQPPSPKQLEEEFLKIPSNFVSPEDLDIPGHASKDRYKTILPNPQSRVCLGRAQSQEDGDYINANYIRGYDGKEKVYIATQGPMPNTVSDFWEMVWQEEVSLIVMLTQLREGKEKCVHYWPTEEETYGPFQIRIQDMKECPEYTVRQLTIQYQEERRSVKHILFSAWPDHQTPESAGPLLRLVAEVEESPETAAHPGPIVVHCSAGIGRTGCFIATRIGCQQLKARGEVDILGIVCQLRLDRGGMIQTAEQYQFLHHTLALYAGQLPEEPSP

[4] = target: Glyceraldehyde-3-phosphate dehydrogenase (Homo sapiens, UniProt P04406)
Bcl-2-related protein A1 [5] = target: T4, Bcl-2-related protein A1 (Mus musculus, UniProt Q07440); assay: small-molecule antagonists of Bfl-1/BH3 interaction – biochemical, TR-FRET, mouse Bfl-1, confirmation (AID 621);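 further: TR-FRET binding of GST-Bfl-1 to FITC-labelled Bid peptide via terbium antibody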
T4 sequence (Q07440 whole entry): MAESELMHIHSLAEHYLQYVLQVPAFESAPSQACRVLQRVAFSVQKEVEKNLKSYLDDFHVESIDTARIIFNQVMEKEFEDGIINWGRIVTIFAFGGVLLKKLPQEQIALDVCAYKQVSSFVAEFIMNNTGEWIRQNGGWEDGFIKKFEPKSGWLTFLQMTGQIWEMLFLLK

Bcl-2-related protein A1 [6] = target: T4, Bcl-2-related protein A1; assay: Bfl-1 binding inhibitors, SAR follow-up, biochemical, fluorescence polarization (AID 1070)
[7] = NIH-3T3 fibroblast cytotoxicity, dose response, cytotoxicity control, cell-based, fluorescence, Alamar Blue, secondary assay (AID 2327); format: functional;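 further: NIH-3T3 mouse fibroblasts cultured with fluconazole at 8 µg/mL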
[8] = fluconazole-exposed Candida albicans growth modulators – fluorescence, retest, confirmation (AID 2467); format: functional, cell-based
[9] = HPDE-C7 pancreatic duct cell viability loss – fluorescence, HTS (AID 430); format: functional, cell-based; settings: Homo sapiens
[10] = Luminescence-based dose response cell-based high throughput screening assay for cytotoxic compounds using the IEC-6 intestinal epithelial cell line. [Related pubchem assays: 1858 (Summary AID.), 1825 (Counterscreen.), 1907 (Confirmation screen.)]; format: functional
[11] = viability loss of HPDE-C7K cells – cell-based, fluorescence, HTS, primary screen (AID 431); format: functional; settings: Homo sapiens
[12] = HEK-293T cell viability reduction – luminescence, B-cell screen hits, cytotoxicity control for BCR NF-kB inhibitor project, dose response (AID 489021); format: functional, cell-based;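 further: HEK-293T cells carrying an NF-kB luciferase reporter; cells exposed to compound for about 14 hours before viability readout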
INS1 = assay: INS-1E survival protection against cytokine death – cell-based, luminescence, retest, dose response (AID 449756); format: functional; settings: Rattus norvegicus;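 further: cell death triggered by IL-1 beta plus TNF-alpha plus IFN-gamma mixture; protective hits raise ATP signal compared with cytokine alone wells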
[13] = target: Serine/threonine-protein phosphatase PP1-alpha catalytic subunit (Homo sapiens, UniProt P62136); assay: inhibition of protein phosphatase 1 activity – biochemical, fluorescence, dose response (AID 2394)
[14] = Trypanosoma cruzi growth suppression in host cells – NIH3T3 host cells, beta-gal luminescence, confirmation (AID 2044); format: functional, cell-based;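 further: intracellular parasites grown in NIH/3T3 mouse fibroblasts as host cells; luminescent beta-galactosidase reporter signal from transgenic T. cruzi replicating inside host cells; inhibitors lower the luminescence signal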
[15] = target: Serine/threonine-protein phosphatase (Homo sapiens, UniProt Q9BPW0); assay: inhibition of protein phosphatase 5 activity – biochemical, fluorescence, dose response (AID 2395)
[16] = NIH3T3 cell viability loss – ATP luminescence, mouse fibroblasts, counter-screen, dose response (AID 2010); format: functional, cell-based;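 further: cells exposed to compound for about 90 hours before reading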
[17] = target: T5, Apoptotic protease-activating factor 1 (Homo sapiens, UniProt O14727); format: functional
T5 sequence (O14727 whole entry): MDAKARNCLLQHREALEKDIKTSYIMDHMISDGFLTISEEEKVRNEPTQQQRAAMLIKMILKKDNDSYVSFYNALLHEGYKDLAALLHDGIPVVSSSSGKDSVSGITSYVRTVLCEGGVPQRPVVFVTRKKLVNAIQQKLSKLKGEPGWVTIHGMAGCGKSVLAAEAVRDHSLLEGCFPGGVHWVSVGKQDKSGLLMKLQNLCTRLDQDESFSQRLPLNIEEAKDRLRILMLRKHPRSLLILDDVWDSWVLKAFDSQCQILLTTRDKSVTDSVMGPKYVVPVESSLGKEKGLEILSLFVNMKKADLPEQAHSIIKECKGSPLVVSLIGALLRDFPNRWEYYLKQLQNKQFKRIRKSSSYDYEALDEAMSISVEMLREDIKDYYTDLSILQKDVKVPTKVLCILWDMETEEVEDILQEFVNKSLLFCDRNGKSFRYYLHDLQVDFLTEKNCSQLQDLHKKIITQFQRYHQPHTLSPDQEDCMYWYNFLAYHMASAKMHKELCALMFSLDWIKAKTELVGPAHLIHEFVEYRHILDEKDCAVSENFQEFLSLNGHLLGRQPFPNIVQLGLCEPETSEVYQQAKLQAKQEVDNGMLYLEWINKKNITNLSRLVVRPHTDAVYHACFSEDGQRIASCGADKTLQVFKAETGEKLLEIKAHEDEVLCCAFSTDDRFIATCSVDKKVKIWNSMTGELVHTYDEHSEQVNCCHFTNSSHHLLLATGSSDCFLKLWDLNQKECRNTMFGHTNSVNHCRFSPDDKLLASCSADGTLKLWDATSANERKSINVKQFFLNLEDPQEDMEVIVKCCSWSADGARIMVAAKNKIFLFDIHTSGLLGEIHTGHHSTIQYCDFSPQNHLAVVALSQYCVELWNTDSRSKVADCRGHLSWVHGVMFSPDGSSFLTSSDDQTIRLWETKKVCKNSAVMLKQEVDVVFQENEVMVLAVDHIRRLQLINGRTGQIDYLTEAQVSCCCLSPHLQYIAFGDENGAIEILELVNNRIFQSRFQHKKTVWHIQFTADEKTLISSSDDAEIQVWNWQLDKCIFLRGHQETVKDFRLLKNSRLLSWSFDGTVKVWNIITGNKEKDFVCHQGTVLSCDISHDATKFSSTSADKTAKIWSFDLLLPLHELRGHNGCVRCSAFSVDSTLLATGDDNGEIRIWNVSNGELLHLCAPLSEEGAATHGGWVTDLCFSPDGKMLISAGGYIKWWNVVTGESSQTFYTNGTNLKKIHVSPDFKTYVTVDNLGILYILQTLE

[18] = target: Histone-lysine N-methyltransferase NSD2 (Homo sapiens, UniProt O96028); format: biochemical
[19] = target: RNA-editing ligase 1, mitochondrial (Trypanosoma brucei brucei, UniProt P86926); assay: inhibition of trypanosome RNA editing ligase – biochemical, fluorescence, Trypanosoma brucei, dose response (AID 1117295); format: functional
RNA-editing ligase 1, mitochondrial, sequence (P86926 whole entry): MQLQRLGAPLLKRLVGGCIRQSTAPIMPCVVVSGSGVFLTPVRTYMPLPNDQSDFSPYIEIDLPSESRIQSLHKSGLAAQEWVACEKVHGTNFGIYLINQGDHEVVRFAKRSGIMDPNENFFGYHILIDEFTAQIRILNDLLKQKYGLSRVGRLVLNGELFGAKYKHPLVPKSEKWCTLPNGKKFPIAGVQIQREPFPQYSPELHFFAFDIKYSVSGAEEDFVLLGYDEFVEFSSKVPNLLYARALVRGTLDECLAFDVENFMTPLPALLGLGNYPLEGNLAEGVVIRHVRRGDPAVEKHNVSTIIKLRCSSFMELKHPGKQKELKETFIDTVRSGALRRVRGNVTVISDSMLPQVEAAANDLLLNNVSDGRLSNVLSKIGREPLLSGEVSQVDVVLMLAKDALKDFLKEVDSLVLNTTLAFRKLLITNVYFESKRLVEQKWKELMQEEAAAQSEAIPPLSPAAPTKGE

Aryl hydrocarbon receptor, sequence (P35869 whole entry): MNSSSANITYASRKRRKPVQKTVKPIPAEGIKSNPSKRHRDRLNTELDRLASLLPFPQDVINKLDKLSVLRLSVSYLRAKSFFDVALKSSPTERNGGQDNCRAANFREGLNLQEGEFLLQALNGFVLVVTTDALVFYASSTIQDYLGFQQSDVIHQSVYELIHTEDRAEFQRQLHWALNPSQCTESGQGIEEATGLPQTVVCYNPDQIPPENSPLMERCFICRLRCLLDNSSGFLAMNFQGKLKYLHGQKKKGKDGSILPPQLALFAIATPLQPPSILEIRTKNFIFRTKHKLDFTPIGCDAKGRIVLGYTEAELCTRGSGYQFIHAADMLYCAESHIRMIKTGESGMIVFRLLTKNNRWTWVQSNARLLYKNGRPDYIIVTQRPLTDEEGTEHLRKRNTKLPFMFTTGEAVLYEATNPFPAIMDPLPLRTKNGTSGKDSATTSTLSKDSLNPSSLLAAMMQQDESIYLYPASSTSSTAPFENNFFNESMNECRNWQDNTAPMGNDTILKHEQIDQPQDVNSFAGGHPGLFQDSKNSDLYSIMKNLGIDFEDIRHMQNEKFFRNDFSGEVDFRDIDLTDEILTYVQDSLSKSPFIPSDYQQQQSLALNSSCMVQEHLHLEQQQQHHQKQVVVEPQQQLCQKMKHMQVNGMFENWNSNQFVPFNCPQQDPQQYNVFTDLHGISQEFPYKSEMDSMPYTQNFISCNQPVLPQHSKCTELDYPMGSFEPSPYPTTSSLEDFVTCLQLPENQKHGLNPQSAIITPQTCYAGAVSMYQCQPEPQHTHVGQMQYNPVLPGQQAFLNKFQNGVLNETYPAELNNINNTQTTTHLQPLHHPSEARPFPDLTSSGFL
Histone-lysine N-methyltransferase NSD2, sequence (O96028 whole entry): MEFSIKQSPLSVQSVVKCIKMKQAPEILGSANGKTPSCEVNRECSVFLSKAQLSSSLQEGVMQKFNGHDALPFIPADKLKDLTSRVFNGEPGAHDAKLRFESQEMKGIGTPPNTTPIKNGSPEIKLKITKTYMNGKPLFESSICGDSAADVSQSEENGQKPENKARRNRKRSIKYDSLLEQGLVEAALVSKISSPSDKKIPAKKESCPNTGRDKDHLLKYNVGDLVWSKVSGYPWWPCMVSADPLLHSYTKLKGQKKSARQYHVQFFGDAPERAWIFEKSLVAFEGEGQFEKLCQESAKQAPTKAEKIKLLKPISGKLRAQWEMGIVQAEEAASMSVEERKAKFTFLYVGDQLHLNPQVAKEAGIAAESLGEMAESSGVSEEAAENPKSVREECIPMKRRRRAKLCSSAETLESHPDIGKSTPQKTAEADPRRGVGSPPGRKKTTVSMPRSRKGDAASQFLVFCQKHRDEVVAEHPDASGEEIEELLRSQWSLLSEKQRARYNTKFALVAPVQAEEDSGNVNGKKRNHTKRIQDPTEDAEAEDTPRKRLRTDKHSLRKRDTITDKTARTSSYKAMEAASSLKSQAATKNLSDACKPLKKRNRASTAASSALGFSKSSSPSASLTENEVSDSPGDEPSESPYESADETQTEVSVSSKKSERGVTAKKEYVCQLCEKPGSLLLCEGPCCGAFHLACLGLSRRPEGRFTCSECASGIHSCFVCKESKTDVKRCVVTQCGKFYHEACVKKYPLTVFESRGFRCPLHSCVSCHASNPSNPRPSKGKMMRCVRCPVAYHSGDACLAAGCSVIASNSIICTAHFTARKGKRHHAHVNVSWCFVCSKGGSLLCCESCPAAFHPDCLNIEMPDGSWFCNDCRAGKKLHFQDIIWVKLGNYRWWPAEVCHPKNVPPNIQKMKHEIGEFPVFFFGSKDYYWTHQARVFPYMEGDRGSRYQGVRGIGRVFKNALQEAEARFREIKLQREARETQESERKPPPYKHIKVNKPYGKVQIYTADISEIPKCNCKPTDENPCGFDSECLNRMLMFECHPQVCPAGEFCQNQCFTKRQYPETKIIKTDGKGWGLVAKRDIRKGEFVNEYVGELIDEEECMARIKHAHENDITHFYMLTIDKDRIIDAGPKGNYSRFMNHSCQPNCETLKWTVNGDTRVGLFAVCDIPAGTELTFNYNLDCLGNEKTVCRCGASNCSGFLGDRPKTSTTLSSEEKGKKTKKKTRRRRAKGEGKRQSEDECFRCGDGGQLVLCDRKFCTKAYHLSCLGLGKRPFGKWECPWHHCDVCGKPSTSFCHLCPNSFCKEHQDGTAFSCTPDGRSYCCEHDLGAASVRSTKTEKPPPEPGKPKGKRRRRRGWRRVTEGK
Serine/threonine-protein phosphatase, sequence (Q9BPW0 whole entry): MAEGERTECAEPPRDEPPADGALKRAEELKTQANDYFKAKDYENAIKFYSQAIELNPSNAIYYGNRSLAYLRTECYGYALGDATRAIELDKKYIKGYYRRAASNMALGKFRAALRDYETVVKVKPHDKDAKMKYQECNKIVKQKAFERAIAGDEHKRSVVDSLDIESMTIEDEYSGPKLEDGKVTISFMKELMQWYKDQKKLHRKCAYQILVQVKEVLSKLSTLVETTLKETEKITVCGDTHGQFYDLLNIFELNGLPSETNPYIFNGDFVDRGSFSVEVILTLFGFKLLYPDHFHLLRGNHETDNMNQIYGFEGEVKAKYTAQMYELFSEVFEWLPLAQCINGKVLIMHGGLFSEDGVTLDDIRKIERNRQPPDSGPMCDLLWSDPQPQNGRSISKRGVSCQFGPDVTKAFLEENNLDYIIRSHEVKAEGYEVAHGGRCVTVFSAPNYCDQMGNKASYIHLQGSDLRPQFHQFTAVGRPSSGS
Serine/threonine-protein phosphatase PP1-alpha catalytic subunit, sequence (P62136 whole entry): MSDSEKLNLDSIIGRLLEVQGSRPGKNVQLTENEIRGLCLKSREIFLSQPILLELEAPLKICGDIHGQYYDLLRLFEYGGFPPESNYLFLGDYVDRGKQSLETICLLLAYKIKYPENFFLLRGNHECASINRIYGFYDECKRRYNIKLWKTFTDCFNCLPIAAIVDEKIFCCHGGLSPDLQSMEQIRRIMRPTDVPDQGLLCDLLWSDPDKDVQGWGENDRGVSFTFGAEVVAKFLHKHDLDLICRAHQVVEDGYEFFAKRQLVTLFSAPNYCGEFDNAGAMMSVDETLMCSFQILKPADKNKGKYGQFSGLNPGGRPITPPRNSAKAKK
Glyceraldehyde-3-phosphate dehydrogenase, sequence (P04406 whole entry): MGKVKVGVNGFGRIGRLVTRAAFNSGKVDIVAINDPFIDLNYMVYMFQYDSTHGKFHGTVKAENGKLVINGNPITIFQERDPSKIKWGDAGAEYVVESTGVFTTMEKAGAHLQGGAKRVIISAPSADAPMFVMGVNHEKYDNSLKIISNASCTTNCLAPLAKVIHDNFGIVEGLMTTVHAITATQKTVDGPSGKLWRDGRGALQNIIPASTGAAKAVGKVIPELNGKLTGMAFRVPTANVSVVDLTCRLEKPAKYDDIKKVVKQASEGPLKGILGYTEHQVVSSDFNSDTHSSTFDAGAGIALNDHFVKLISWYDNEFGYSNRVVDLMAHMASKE

## Nc1[nH]ncc1C(=O)Nc1cccc(C(F)(F)F)c1
Leucine aminopeptidase
  IC50: 44.5 µM (active)
[1]
  EC50: 12.5 µM (not active)

## c1ccc2c(c1)Nc1nc3ccccc3nc1N2
NADPH oxidase 1
  IC50: 0.36 µM (active)

## Cc1cc(C)c(C(=O)/C=C/c2ccc(C(C)C)cc2)c(O)n1
Vero
  CC50: 35.8 µM (active)
[2]
  AC50: 9.65 µM (active)

## CCc1ccccc1N(CC(=O)OC)S(C)(=O)=O
[3]
  IC50: > 100 µM (not active)

## COCCNC1=C(Cl)C(=O)N(c2ccc(Cl)c(Cl)c2)C1=O
[4]
  IC50: > 100 µM (not active)
Bcl-2-related protein A1 [5]
  IC50: 4.96 µM (active)
Bcl-2-related protein A1 [6]
  IC50: 12.6 µM (active)

## C[C@H]1CCC/C=C/C2C[C@H](O)CC2[C@H](O)/C=C/C(=O)O1 (stereo partly drawn)
[7]
  EC50: 2.37 µM (inconclusive)
[8]
  EC50: 0.843 µM (active)
[9]
  EC50: 0.23 µM (active)
[10]
  IC50: 0.446 µM (active)
[11]
  EC50: 0.24 µM (active)
[12]
  IC50: > 80 µM (inactive)
INS1
  AC50: 1.01 µM (active)

## Oc1ccccc1/C=N/Nc1cc(N2CCCC2)nc(N2CCCC2)n1
[13]
  IC50: 34.4 µM (not active)
[14]
  EC50: 1.85 µM (active)
[15]
  IC50: 4.26 µM (active)
[16]
  EC50: > 60 µM (inconclusive)
[17]
  IC50: 1.03 µM (active)
[18]
  AC50: 1.97 µM (active)
[19]
  IC50: > 96.6 µM (inactive)
